This is an account of results in patent publication US8802631B2, “Peptides and methods for the treatment of gliomas and other cancers” (Ludwig Institute for Cancer Research Ltd., priority 2007, dated 2014).

Experiment [1] concerns U87MG cells. The experiment can be described thus: BrdU incorporation assay in U87MG cells. The format is cell-based, human. The conditions noted are these: 24 hours; for effect of TAT peptide on cell proliferation mediated by STI1 (BrdU): TAT peptide 0.17 μM plus STI1 0.17 μM, FIG. 9; for effect of peptide on cell proliferation mediated by STI1 (BrdU): peptide 0.17 μM or 8 μM plus STI1 0.17 μM, FIG. 8; for effect of peptide on STI1-promoted U87MG proliferation (BrdU): FIG. 7B. As to the method:
Cells were plated overnight on 24-well plates with glass cover slips, at a density of 1.5×10^4 cells per well, with DMEM with 10% FCS at 37° C. Plates were washed 3 times with PBS and were maintained in DMEM F12 for 48 hours. Cells were then treated for 24 hours with DMEM/10% FCS or DMEM plus mouse recombinant STI1 (170 nM); recombinant STI1 (170 nM) plus mouse peptide STI1230-245(ELGNDAYKKKDFDKAL) (SEQ ID NO: 1) or its human homologue peptide Hop230-245(ELGNDAYKKKDFDTAL) (SEQ ID NO: 2) (170 nM or 8 μM); STI1 (170 nM) plus STI1/Hop61-76 (GCKTVDLKPDWGKGYS) (SEQ ID NO: 3) irrelevant peptide (170 nM or 8 μM); or each one of the peptides alone. Two hours before the end of treatment, cells received a pulse of BrdU (35 μM) pulse and were fixed with 4% paraformaldehyde.
Coverslips were treated with 2N HCl for 30 minutes. The reagent was then removed and borate buffer applied (boric acid 0.1M, sodium hydroxide 0.15M), pH 8.4, for 10 minutes. Then, cells were treated with PBS plus 0.2% Triton X-100 for 15 minutes. The blocking step was made with PBS/0.2% Triton with 20% horse serum, for 1 hour. Primary anti-BrdU biotinylated antibodies (1:100) were applied overnight (diluted in PBS/0.2% Triton with 1% horse serum). Coverslips were washed 3 times with PBS and incubated for one hour with Strepta-Alexa 488 and DAPI reagents (1:1000), washed more 3 times with PBS and assembled to slides.
There were taken at least four microscopic fields of each treatment on WB filter, ranging from 330-385 nm (DAPI), plus their respective BrdU images, on WIB filter, 450-480 nm using DP controller software, Olympus. Picture files were analyzed on ImageJ software, and the percentage of BrdU positive nuclei in respect to total nuclei number (DAPI) was calculated using the Analyze Particles tool.
FIG. 7B: Treatment of U87MG cells with STI1230-245 peptide abrogates cell proliferation mediated by STI1. U87MG human glioblastoma cells were plated at 1.5×10^4 confluence on glass cover slips of 12 mm. After overnight adherence, cells were starved on serum-free media for 48 hours. Cells were subjected to distinct treatments (see picture) for 24 hours, and a BrdU pulse of 32 μM was performed on the last 2 hours of treatment. Immunofluorescence and cell imaging were done in order to permit absolute cell counting. Values represent percentage of BrdU positive cell nuclei from total number of cell nuclei. FCS (fetal calf serum), STI1/Hop (0.17 μM or 8 μM) and/or STI1230-245 (0.17 μM or 8 μM) and/or STI1/Hop61-76 (irrelevant N-terminus STI1/Hop peptide, 0.17 μM or 8 μM). *Statistically significant from control (without treatment), p<0.001. Bars shown as mean±SEM.
FIG. 8: Hop230-245 peptide inhibits the U87MG cell proliferation mediated by STI1. U87MG human glioblastoma cells were plated at 1.5×10^4 confluence on glass cover slips of 12 mm. After overnight adherence, cells were starved on serum-free media for 48 hours. Cells were subjected to distinct treatments (see picture) for 24 hours, and a BrdU pulse of 32 μM was performed on the last 2 hours of treatment. Immunofluorescence and cell imaging were done in order to permit absolute cell counting. Values represent percentage of BrdU positive cell nuclei from total number of cell nuclei. STI1 (0.17 μM) and/or Hop230-245 (0.17 μM or 8 μM) and/or STI1/Hop61-76 (irrelevant STI1/Hop61-76, 0.17 μM or 8 μM). *Statistically significant from control (without treatment), p<0.01. Bars shown as mean±SEM.
FIG. 9: Treatment of U87MG cells with TAT-STI1230-245 and TAT-Hop230-245 peptides inhibits cell proliferation mediated by STI1. U87MG human glioblastoma cells were plated at 1.5×10^4 confluence on glass cover slips of 12 mm. After overnight adherence, cells were starved on serum-free media for 48 hours. Cells were subjected to distinct treatments (see picture) for 24 hours, and a BrdU pulse of 32 μM was performed on the last 2 hours of treatment. Immunofluorescence and cell imaging were done in order to permit absolute cell counting. […]
On the technique in general: Incorporation of labelled thymidine or its analogues reports DNA synthesis.

Experiment [2] relates to rats. In words: One-trial step-down inhibitory avoidance (IA) long-term memory test. Format: in vivo, rat. An excerpt: Rats were trained in a one-trial, step-down IA paradigm, a hippocampal-dependent learning task in which stepping down from a platform present in a given context is associated with a foot shock, resulting in an increase in step-down latency when the animal is brought back to the training chamber for a retention test (Cammarota et al., 2004). The IA apparatus was a 50×25×25 cm Plexiglas box with a 5-cm-high, 8-cm-wide and 25-cm-long platform on the left end of a series of bronze bars that constitutes the floor of the box. During training, each animal was gently placed on the platform facing the left rear corner of the training box. When an animal stepped down and placed all four of its paws on the grid, it received a 2-s, 0.5-mA foot shock and was then immediately withdrawn from the training box. Animals were replaced in the IA box for retention testing 90 min (for short-term memory (STM)), or 24 h later (for long-term memory (LTM)); their latency to step down onto the grid was recorded. The difference between the training and test-session step-down latencies was taken as a measure of retention. Better memory for the training was inferred from longer retention latencies (Bernabeu et al., 1997; Izquierdo et al., 1997). The maximum retention latency allowed was 180 s, at which time the animal was taken out of the IA box if it had not stepped down and given a score of 180 s. Full details of the experimental protocols can be found in Coitinho et al., 2007.
The data obtained in tests of the effect of peptides on rat long-term memory are presented as medians±interquartile range and were analyzed by the Kruskal-Wallis nonparametric test followed by Dunn's post-hoc (n=10 to 13 animals for each treatment group). In all comparisons, p<0.05 was taken as a significant difference.
FIG. 11: STI1230-245 peptide and TAT-STI1230-245 peptides are capable of increasing long-term memory. The latency to step down before treated rats was recorded (Training) and immediately after training animals received a bilateral hippocampal infusion of saline, STI1230-245 peptide, TAT-STI1230-245 or TAT-STI161-76 irrelevant peptide at the concentration of 15 ng/μl in a total volume of 0.5 μl/side. The latency to step down was tested again 24 hours later (LTM test) and measures Long-term memory (LTM). Data are shown as mean±SE of step-down latencies (n=12 rats in each group). *p<0.05 vs control.

Experiment [3] relates to A172 cells. In words: [3H]-thymidine incorporation proliferation assay in A172 cells. The format is cell-based, human. The conditions noted are these: 24 hr; for promotion of proliferation by peptide alone: serum-free media, FIG. 6.
Experiment [4] relates to A172 cells. In words: BrdU incorporation assay in A172 cells. Format: cell-based, human. The conditions noted are these: peptide 170 nM plus STI1 170 nM, 18 hours, FIG. 7A. Here is the method: Cells were plated overnight on 24-well plates with glass coverslips, at a density of 1×10^4 cells per well, in DMEM high glucose plus 10% FCS at 37° C. Plates were washed 3 times with PBS and were maintained in DMEM without FCS for 30 hours. Cells were then treated for 18 hours with DMEM/10% FCS or DMEM plus mouse recombinant STI1 (170 nM); STI1 (170 nM) plus STI1230-245 peptide (170 nM); or STI1 (170 nM) plus STI161-76 irrelevant peptide (170 nM). Thirty minutes before the end of treatment, cells received a pulse of BrdU (35 μM) and were fixed with 4% paraformaldehyde.
Coverslips were treated with 2N HCl for 30 minutes. The reagent was then removed and borate buffer applied (boric acid 0.1M, sodium hydroxide 0.15M), pH 8.4, for 10 minutes. Then, cells were treated with PBS plus 0.2% Triton X-100 for 15 minutes. The blocking step was made with PBS/0.2% Triton with 20% horse serum, for 1 hour. […]
There were taken at least four microscopic fields of each treatment on WB filter, ranging from 330-385 nm (DAPI), plus their respective BrdU images, on WIB filter, 450-480 nm using DP controller software, Olympus. Picture files were analyzed on ImageJ software, and the percentage of BrdU positive nuclei in respect to total nuclei number (DAPI) was calculated using the Analyze Particles tool. […]

In experiment [5] the test system is Erk. In words: Western blot of phospho-Erk in A172 cell lysates. The conditions noted are these: inhibitor added 10 minutes prior to STI1. Format: cell-based, human. Background: A western blot detects proteins with antibodies after separation by electrophoresis.
Experiment [6] deals with cellular prion protein (PrP^C), endogenous, on human glioblastoma cells (A172, U87MG) (human (A172 human glioblastoma cell line)) (UniProt P04156). The experiment can be described thus: cell-based or functional assay.

In the case of “YGRKKRRQRRRELGNDAYKKKDFDTAL (conjugate of seq id nos 2 and 8) [TAT-Hop230-245]”, the “effect of TAT peptide on cell proliferation mediated by STI1 (BrdU)” value in experiment [1] is listed as “able to block cell proliferation mediated by STI1”. Moreover, the “effect in memory consolidation” value in experiment [2] (rat, in vivo) is given as “potent effect in memory consolidation”.
On to “ELGNDAYKKKDFDTAL (listed as Homo sapiens) [Hop230-245, human homologue of mouse STI1230-245 peptide]”, for which, in experiment [1], the “effect of peptide on cell proliferation mediated by STI1 (BrdU)” value (shortened to “effect of peptide … by STI1 (BrdU)”) is “able to abrogate the cell proliferation mediated by STI1”. In experiment [2] (rats, FIG. 11), the “effect in memory consolidation” value is “potent effect in memory consolidation”.
With “ELGNDAYKKKDFDKAL (listed as Mus musculus) [STI1230-245]”, the “promotion of proliferation by peptide alone” value in experiment [3] is given as “unable by itself to promote proliferation”. Besides, the “effect of peptide on STI1-induced proliferation (BrdU)” value in experiment [4] is reported as “inhibited STI1-induced proliferation”. The “effect of peptide … by STI1 (BrdU)” value in experiment [1] was “able to abrogate the cell proliferation mediated by STI1”. Also, the “effect of peptide on STI1-promoted U87MG proliferation (BrdU)” value in experiment [1] (peptide 170 nM plus STI1 170 nM) and in experiment [1] (peptide 8 μM plus STI1 170 nM) was “blocked” in each case. Further, the “long-term memory (retention latency, LTM test 24 hours after training)” value in experiment [2] (bilateral hippocampal infusion immediately after training, 15 ng/μl, 0.5 μl/side) is “greatly enhanced long-term memory”. Moreover, the “effect in memory consolidation” value in experiment [2] (rats, FIG. 11) is on record as “potent effect in memory consolidation”.
In the case of “YGRKKRRQRRRELGNDAYKKKDFDKAL (conjugate of seq id nos 1 and 8) [TAT-STI1230-245]”, the “effect of TAT peptide on cell proliferation mediated by STI1 (BrdU)” value in experiment [1] is recorded as “able to block cell proliferation mediated by STI1”. Further, in experiment [2] (rat, in vivo), the “effect in memory consolidation” value was “potent effect in memory consolidation” and the “long-term memory (retention latency, LTM test 24 hours after training)” value was “greatly enhanced long-term memory”.
As to `N#CC(=C(/N)Sc1ccccc1N)/C(C#N)=C(\N)Sc1ccccc1N` [U0126], the “effect of inhibitor on STI1-induced proliferation” value in experiment [3] (U0126 10 μM or LY294002 5 μM added 10 minutes before STI1 170 nM) is reported as “completely abolished STI1-induced proliferation”. The “effect of co-treatment on STI1-induced Erk activation” value in experiment [5] is recorded as “abolished”.
“recombinant mouse stress-inducible phosphoprotein 1 (STI1), wild type (from UniProt Q60864 1-543) (ligand)”: in experiment [6], the BrdU incorporation (proliferation) of A172 cells turned out to be 1.5 fold; the BrdU incorporation (proliferation) of U87MG cells amounted to 3 fold; the [3H]-thymidine incorporation of A172 cells, concentration of the maximum effect worked out at 170 nM.
In the case of “GCKTVDLKPDWGKGYS (listed as Homo sapiens) [STI1/Hop61-76, N-terminus irrelevant STI1/Hop peptide, reference compound]”, the “promotion of proliferation by peptide alone” value in experiment [3] is “did not enhance proliferation”. For the same compound, in experiment [4], the “effect of peptide on STI1-induced proliferation (BrdU)” value is “no effect”. The “effect of peptide … by STI1 (BrdU)” value in experiment [1] is listed as “had no effect upon proliferation mediated by STI1”.
